Results: patent publication US12172983B2, “EGFR inhibitors” (Blueprint Medicines Corporation, priority 2019, dated 2024)
Where two headings read alike, the source gives them in different places.

Columns and labels:
[1] = system: phosphorylation of EGFR (Tyr1068) in NCI-H1975 cell line that harbors the EGFR L858R T790M mutations; test: NCI-H1975 pEGFR AlphaLISA assay; format: cell-based; conditions: 4-5 hours incubation, read-out: Ext pEGFR H1975
Method in brief: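 NCI-H1975 cells (EGFR L858R/T790M) seeded overnight, then treated with compound for 4-5 h at 37 °C/5% CO2. After lysis, p-EGFR (Tyr1068) quantified by AlphaLISA SureFire Ultra with acceptor then donor beads; IC50 fitted from percent inhibition versus log concentration.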

EGFR (L858R T790M C797S) = target: T1, EGFR (L858R T790M C797S) (Homo sapiens, UniProt P00533, C797S/L858R/T790M); test: Biochemical EGFR inhibition assay (Caliper mobility shift), EGFR LRTMCS mutant; conditions: inhibitory activity against EGFR LRTMCS mutant; apparent IC50; read-out: Ext Enz LRTMCS
T1 construct: purchased SignalChem E10-122VG
Method in brief: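 Caliper mobility shift read-out: product and substrate peptides separated by electrophoresis and quantified. Reactions at 25° C. taken to 10–20% peptide phosphorylation, quenched with 35 mM EDTA. Apparent IC50 from percent activity vs log [compound].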

[2] = inhibition of phosphorylation of mutant EGFR in NCI-H1975 cells
[3] = Homo sapiens, NCI-H1975, inhibition of phosphorylation of mutant EGFR in NCI-H1975 cells

T1 sequence (P00533 25-1210 T790M/C797S/L858R): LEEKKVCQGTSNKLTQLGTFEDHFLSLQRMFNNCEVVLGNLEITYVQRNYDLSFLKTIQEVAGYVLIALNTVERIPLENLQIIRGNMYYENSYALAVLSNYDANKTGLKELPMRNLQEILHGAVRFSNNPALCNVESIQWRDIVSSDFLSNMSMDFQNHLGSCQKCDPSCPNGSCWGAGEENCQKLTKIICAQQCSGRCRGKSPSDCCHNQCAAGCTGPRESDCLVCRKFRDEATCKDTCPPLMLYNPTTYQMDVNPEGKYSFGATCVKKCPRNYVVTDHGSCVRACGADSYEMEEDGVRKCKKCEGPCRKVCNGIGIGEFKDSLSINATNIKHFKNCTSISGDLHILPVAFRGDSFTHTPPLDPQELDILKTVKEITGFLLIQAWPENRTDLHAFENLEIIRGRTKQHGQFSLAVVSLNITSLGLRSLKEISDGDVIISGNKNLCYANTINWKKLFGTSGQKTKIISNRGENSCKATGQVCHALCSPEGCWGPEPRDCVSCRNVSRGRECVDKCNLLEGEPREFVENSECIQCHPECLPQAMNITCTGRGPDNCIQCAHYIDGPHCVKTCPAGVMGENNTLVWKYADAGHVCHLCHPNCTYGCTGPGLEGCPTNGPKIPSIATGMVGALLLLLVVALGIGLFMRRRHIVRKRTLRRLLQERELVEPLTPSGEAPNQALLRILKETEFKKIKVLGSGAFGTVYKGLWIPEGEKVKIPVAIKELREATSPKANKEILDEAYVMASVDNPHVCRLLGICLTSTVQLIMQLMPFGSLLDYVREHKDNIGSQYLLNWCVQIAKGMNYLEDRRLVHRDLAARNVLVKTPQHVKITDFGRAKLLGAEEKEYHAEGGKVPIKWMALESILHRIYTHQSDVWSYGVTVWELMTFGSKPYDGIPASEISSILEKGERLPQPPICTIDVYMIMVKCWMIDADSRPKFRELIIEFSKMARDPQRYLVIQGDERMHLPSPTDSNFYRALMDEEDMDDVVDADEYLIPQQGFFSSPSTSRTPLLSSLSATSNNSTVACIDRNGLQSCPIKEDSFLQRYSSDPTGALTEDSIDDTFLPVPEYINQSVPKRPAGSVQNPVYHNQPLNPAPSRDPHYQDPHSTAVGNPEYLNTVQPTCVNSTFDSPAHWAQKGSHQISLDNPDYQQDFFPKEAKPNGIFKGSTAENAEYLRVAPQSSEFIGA

Row | IC50 [1, 2] [nM] | IC50 (EGFR (L858R T790M C797S)) [nM] | IC50 [1, 3] [nM] | Structure (SMILES)
1 | ≤ 10 | ≤ 15 |  | CNCCO[C@@H]1CCN(c2nccc(Nc3cc4c(C(C)C)ccc(N5C[C@H](CS(C)(=O)=O)[C@H]5C)c4cn3)n2)CC1(F)F (single isomer, unassigned) [Compound 301, N-{2-[(4S)-3,3-difluoro-4-[2-(methylamino)ethoxy]piperidin-1-yl]pyrimidin-4-yl}-8-[(2R,3S)-3-(methanesulfonylmethyl)-2-methylazetidin-1-yl]-5-(propan-2-yl)isoquinolin-3-amine or N-{2-[(4R)-3,3-difluoro-4-[2-(methylamino)ethoxy]piperidin-1-yl]pyrimidin-4-yl}-8-[(2R,3S)-3-(methanesulfonylmethyl)-2-methylazetidin-1-yl]-5-(propan-2-yl)isoquinolin-3-amine]
2 | ≤ 10 | ≤ 15 |  | [2H]C([2H])([2H])O[C@@H]1CCN(c2nccc(Nc3cc4c(C(C)C)ncc(N5C[C@H](CS(C)(=O)=O)[C@H]5C)c4cn3)n2)C[C@@H]1F (single isomer, unassigned) [Compound 162, N-{2-[(3R,4S)-3-fluoro-4-(^2H3)methoxypiperidin-1-yl]pyrimidin-4-yl}-8-[(2R,3S)-3-(methanesulfonylmethyl)-2-methylazetidin-1-yl]-5-(propan-2-yl)-2,6-naphthyridin-3-amine or N-{2-[(3S,4R)-3-fluoro-4-(^2H3)methoxypiperidin-1-yl]pyrimidin-4-yl}-8-[(2R,3S)-3-(methanesulfonylmethyl)-2-methylazetidin-1-yl]-5-(propan-2-yl)-2,6-naphthyridin-3-amine]
3 |  | 15.1 to 20 | ≤ 10 | CC(C)c1ccc(N2C[C@H](CS(C)(=O)=O)[C@H]2C)c2cnc(Nc3ccnc(N4CC[C@H](O)C[C@@H]4C)n3)cc12 (single isomer, unassigned) [Compound 47, (2S,4S)-1-[4-({8-[(2R,3S)-3-(methanesulfonylmethyl)-2-methylazetidin-1-yl]-5-(propan-2-yl)isoquinolin-3-yl}amino)pyrimidin-2-yl]-2-methylpiperidin-4-ol or (2R,4R)-1-[4-({8-[(2R,3S)-3-(methanesulfonylmethyl)-2-methylazetidin-1-yl]-5-(propan-2-yl)isoquinolin-3-yl}amino)pyrimidin-2-yl]-2-methylpiperidin-4-ol]
4 |  | 15.1 to 20 | 10.1 to 20 | CO[C@@H]1CN(c2nccc(Nc3cc4c(C(C)C)ccc(N5CC(CS(C)(=O)=O)C5)c4cn3)n2)C[C@H](F)[C@@H]1O (single isomer, unassigned) [Compound 149, (3S,4R,5R)-3-fluoro-1-[4-({8-[3-(methanesulfonylmethyl)azetidin-1-yl]-5-(propan-2-yl)isoquinolin-3-yl}amino)pyrimidin-2-yl]-5-methoxypiperidin-4-ol or (3R,4S,5S)-3-fluoro-1-[4-({8-[3-(methanesulfonylmethyl)azetidin-1-yl]-5-(propan-2-yl)isoquinolin-3-yl}amino)pyrimidin-2-yl]-5-methoxypiperidin-4-ol]
5 |  | ≤ 15 | 10.1 to 20 | CC(C)c1ccc(N2C[C@H](CS(C)(=O)=O)[C@H]2C)c2cnc(Nc3ccnc(N4CCC(OCCN)CC4)n3)cc12 [Compound 168, N-{2-[4-(2-aminoethoxy)piperidin-1-yl]pyrimidin-4-yl}-8-[(2R,3S)-3-(methanesulfonylmethyl)-2-methylazetidin-1-yl]-5-(propan-2-yl)isoquinolin-3-amine]
6 |  | ≤ 15 | 10.1 to 20 | CC(C)c1ccc(N2CC(C)(CS(C)(=O)=O)C2)c2cnc(Nc3ccnc(N4CC[C@@H](O)[C@@](C)(F)C4)n3)cc12 (single isomer, unassigned) [Compound 112]
7 |  | ≤ 15 | ≤ 10 | CC(C)c1ccc(N2C[C@H](CS(C)(=O)=O)[C@H]2C)c2cnc(Nc3cnnc(N4CC[C@@H](O)[C@@](C)(F)C4)n3)cc12 (single isomer, unassigned) [Compound 130]
8 |  | ≤ 15 | ≤ 10 | CCS(=O)(=O)CC1CN(c2ncc(C(C)C)c3cc(Nc4ccnc(N5CC[C@@H](O)[C@@](C)(F)C5)n4)ncc23)C1 (single isomer, unassigned) [Compound 124]
9 |  | ≤ 15 | ≤ 10 | CC(C)c1ccc(N2CC(CS(C)(=O)=O)C2)c2cnc(Nc3ccnc(N4CC[C@H](O)[C@H](F)C4)n3)cc12 [Compound 29, (3R,4S)-3-fluoro-1-[4-({8-[3-(methanesulfonylmethyl)azetidin-1-yl]-5-(propan-2-yl)isoquinolin-3-yl}amino)pyrimidin-2-yl]piperidin-4-ol]
10 |  | 15.1 to 20 | ≤ 10 | CO[C@@H]1[C@H](F)CN(c2nccc(Nc3cc4c(C(C)C)ccc(N5C[C@H](CS(C)(=O)=O)[C@H]5C)c4cn3)n2)C[C@@H]1O (racemic) [Compound 198, (3R,4R,5S)-5-fluoro-1-(4-((5-isopropyl-8-((2R,3S)-2-methyl-3-((methylsulfonyl)methyl)azetidin-1-yl)isoquinolin-3-yl)amino)pyrimidin-2-yl)-4-methoxypiperidin-3-ol and (3S,4S,5R)-5-fluoro-1-(4-((5-isopropyl-8-((2R,3S)-2-methyl-3-((methylsulfonyl)methyl)azetidin-1-yl)isoquinolin-3-yl)amino)pyrimidin-2-yl)-4-methoxypiperidin-3-ol]
11 |  | ≤ 15 | ≤ 10 | CCS(=O)(=O)C[C@H]1CN(c2ccc(C(C)C)c3cc(Nc4ccnc(N5CC[C@@H](OCCO)[C@@H](F)C5)n4)ncc23)[C@@H]1C [Compound 244, 2-((3S,4R)-1-(4-(8-((2R,3S)-3-(ethylsulfonylmethyl)-2-methylazetidin-1-yl)-5-isopropylisoquinolin-3-ylamino)pyrimidin-2-yl)-3-fluoropiperidin-4-yloxy)ethanol]
12 |  | ≤ 15 | ≤ 10 | CO[C@H]1CCN(c2nncc(Nc3cc4c(C(C)C)ccc(N5C[C@H](CS(C)(=O)=O)[C@H]5C)c4cn3)n2)C[C@H]1F [Compound 133, N-{3-[(3R,4S)-3-fluoro-4-methoxypiperidin-1-yl]-1,2,4-triazin-5-yl}-8-[(2R,3S)-3-(methanesulfonylmethyl)-2-methylazetidin-1-yl]-5-(propan-2-yl)isoquinolin-3-amine]
13 |  | ≤ 15 | 20.1 to 30 | CC(C)c1ccc(N2CC(CS(C)(=O)=O)C2)c2cnc(Nc3ccnc(N4CC[C@@H](F)[C@H](O)C4)n3)cc12 (single isomer, unassigned) [Compound 24, (3S,4S)-4-fluoro-1-[4-({8-[3-(methanesulfonylmethyl)azetidin-1-yl]-5-(propan-2-yl)isoquinolin-3-yl}amino)pyrimidin-2-yl]piperidin-3-ol or (3R,4R)-4-fluoro-1-[4-({8-[3-(methanesulfonylmethyl)azetidin-1-yl]-5-(propan-2-yl)isoquinolin-3-yl}amino)pyrimidin-2-yl]piperidin-3-ol]
14 |  | ≤ 15 | ≤ 10 | CC(C)c1ccc(N2C[C@H](CS(C)(=O)=O)[C@H]2C)c2cnc(Nc3ccnc(N4CC[C@](C)(O)[C@H](O)C4)n3)cc12 (single isomer, unassigned) [Compound 100, (3R,4S)-1-[4-({8-[(2R,3S)-3-(methanesulfonylmethyl)-2-methylazetidin-1-yl]-5-(propan-2-yl)isoquinolin-3-yl}amino)pyrimidin-2-yl]-4-methylpiperidine-3,4-diol or (3S,4R)-1-[4-({8-[(2R,3S)-3-(methanesulfonylmethyl)-2-methylazetidin-1-yl]-5-(propan-2-yl)isoquinolin-3-yl}amino)pyrimidin-2-yl]-4-methylpiperidine-3,4-diol]
15 |  | ≤ 15 | ≤ 10 | [2H]C([2H])([2H])O[C@@H]1CCN(c2nccc(Nc3cc4c(C(C)C)cnc(N5C[C@H](CS(C)(=O)=O)[C@H]5C)c4cn3)n2)C[C@@H]1F (single isomer, unassigned) [Compound 284]
16 |  | ≤ 15 | ≤ 10 | C[C@@H]1[C@@H](CS(C)(=O)=O)CN1c1ccc(C(F)(F)F)c2cc(Nc3ccnc(N4CC[C@@H](O)[C@@](C)(F)C4)n3)ncc12 (single isomer, unassigned) [Compound 222]
17 |  | ≤ 15 | 10.1 to 20 | CC(C)c1ccc(N2CC(CS(C)(=O)=O)C2)c2cnc(Nc3ccnc(N4CCC5(OCCO5)[C@H](F)C4)n3)cc12 (single isomer, unassigned) [Compound 180, N-{2-[(6R)-6-fluoro-1,4-dioxa-8-azaspiro[4.5]decan-8-yl]pyrimidin-4-yl}-8-[3-(methanesulfonylmethyl)azetidin-1-yl]-5-(propan-2-yl)isoquinolin-3-amine or N-{2-[(6S)-6-fluoro-1,4-dioxa-8-azaspiro[4.5]decan-8-yl]pyrimidin-4-yl}-8-[3-(methanesulfonylmethyl)azetidin-1-yl]-5-(propan-2-yl)isoquinolin-3-amine]
18 |  | ≤ 15 | 10.1 to 20 | CO[C@H]1CCN(c2nccc(Nc3cc4c(C(C)C)ncc(N5C[C@H](CS(C)(=O)=O)[C@H]5C)c4cn3)n2)C[C@@H]1O (single isomer, unassigned) [Compound 104, (3S,4S)-1-(4-(5-isopropyl-8-((2R,3S)-2-methyl-3-(methylsulfonylmethyl)azetidin-1-yl)-2,6-naphthyridin-3-ylamino)pyrimidin-2-yl)-4-methoxypiperidin-3-ol or (3R,4R)-1-(4-(5-isopropyl-8-((2R,3S)-2-methyl-3-(methylsulfonylmethyl)azetidin-1-yl)-2,6-naphthyridin-3-ylamino)pyrimidin-2-yl)-4-methoxypiperidin-3-ol]
